From PubChem BioAssay (NCI)
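Each compound was tested at five concentrations against cells in 96-well plates for 48 hours. GI50 = concentration required for 50% inhibition of growth. TGI: concentration producing complete growth inhibition.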

What was measured:
Test in all cases: inhibition of tumour cell growth, NCI panel, 48 h
HOP-62 NSCLC = test system: HOP-62 NSCLC
SK-OV-3 ovarian = test system: SK-OV-3 ovarian
OVCAR-3 ovarian = test system: OVCAR-3 ovarian
CAKI-1 renal = test system: CAKI-1 renal
A549 NSCLC = test system: A549 NSCLC
SF-295 CNS = test system: SF-295 CNS
HCC-2998 colon = test system: HCC-2998 colon
SF-268 CNS = test system: SF-268 CNS
MDA-MB-435 = test system: MDA-MB-435
EKVX NSCLC = test system: EKVX NSCLC

Compound | GI50 (HOP-62 NSCLC) | TGI (HOP-62 NSCLC) | GI50 (SK-OV-3 ovarian) | TGI (SK-OV-3 ovarian) | GI50 (OVCAR-3 ovarian) | TGI (OVCAR-3 ovarian) | GI50 (CAKI-1 renal) | TGI (CAKI-1 renal) | GI50 (A549 NSCLC) | TGI (A549 NSCLC) | GI50 (SF-295 CNS) | TGI (SF-295 CNS) | GI50 (HCC-2998 colon) | TGI (HCC-2998 colon) | GI50 (SF-268 CNS) | TGI (SF-268 CNS) | GI50 (MDA-MB-435) | TGI (MDA-MB-435) | TGI (EKVX NSCLC) | GI50 (EKVX NSCLC)
COc1ccc(NC(=O)COc2ccccc2)c(C(N)=O)c1 | 1.07 µM | 43.4 µM | 3.35 µM | > 100 µM | 0.403 µM | 2.88 µM | 1.09 µM | > 100 µM | 1.09 µM | > 100 µM | 0.644 µM | 16.5 µM | 3.2 µM | > 87.3 µM | 4.25 µM | > 75.1 µM | 0.156 µM | 0.845 µM | – | –
CN(Cc1ccccc1)c1ncnc2ccc(Br)cc12 | 12.6 µM | 25.9 µM | 14.2 µM | 30.3 µM | 7.45 µM | 20.8 µM | 4.37 µM | 17.6 µM | 17.5 µM | 45.8 µM | 13.5 µM | 28.1 µM | 11.9 µM | 26.3 µM | 10.2 µM | 27.5 µM | 4.67 µM | 16.6 µM | – | –
CCCCN1C(=O)C2c3[nH]c4ccccc4c3C3CCCCC3C2C1=O (mixture of isomers) | – | 19.4 µM | – | 47.7 µM | – | 28.9 µM | – | 20.4 µM | – | 45 µM | – | 23.7 µM | – | 62.4 µM | – | 48.4 µM | – | – | 66.8 µM | –
O=C1c2cccc3c([N+](=O)[O-])ccc(c23)C(=O)N1CCCCl | 6.6 µM | > 10 µM | > 10 µM | > 10 µM | 2.2 µM | 4.72 µM | > 10 µM | > 10 µM | > 10 µM | > 10 µM | > 10 µM | > 10 µM | 5.85 µM | > 10 µM | 3.17 µM | > 10 µM | > 10 µM | > 10 µM | – | –
C=C(c1ccccc1)[C@@]1(O)CCCC[C@H]1NC(c1ccccc1)c1ccccc1 | – | 31 µM | – | 44.2 µM | – | 24.7 µM | – | 21.4 µM | – | 26.2 µM | – | 25.1 µM | – | 26.1 µM | – | 27.6 µM | – | – | 43.7 µM | –
Nc1ncnc2c1ncn2C1OC(CO)CC1O (centres undefined) | – | > 100 µM | – | > 100 µM | – | > 100 µM | – | > 100 µM | – | > 100 µM | – | > 100 µM | – | 43.7 µM | – | > 100 µM | – | – | > 100 µM | –
C=CC1CC12C(=O)C1OC2(C)C2C(=O)c3c(O)cccc3C(=O)C12 (centres undefined) | > 100 µM | > 100 µM | 94.5 µM | > 100 µM | – | – | 13.1 µM | 31.8 µM | 70 µM | > 100 µM | – | – | 31.1 µM | > 100 µM | 30.5 µM | > 100 µM | 21 µM | 45.1 µM | > 100 µM | 56.9 µM
S=P(C1CCCCC1)(C1CCCCC1)C(c1cccnc1)N1CCCC1 (centres undefined) | – | 36.2 µM | – | > 100 µM | – | > 100 µM | – | 31.9 µM | – | 35.4 µM | – | 49.2 µM | – | – | – | 38.4 µM | – | 33.6 µM | 41.7 µM | –
CC1=CC[C@@H]2[C@@H](CC[C@@]2(C)O)C(C)(C)[C@H]1CC[C@@H]1[C@@]2(C)CC[C@@H](O)C(C)(C)O[C@@H]2CC[C@]1(C)O | – | 75.4 µM | – | > 100 µM | – | > 100 µM | – | 54.2 µM | – | > 100 µM | – | > 100 µM | – | 33.4 µM | – | – | – | 57 µM | – | –
